Data reported in patent publication US20180298024A1, “CORTISTATIN ANALOGS AND USES THEREOF” (President and Fellows of Harvard College, priority 2015, published 2018).
Where “and” joins values, the source holds several entries; their conditions need not be identical. Equal entries are not always repeated. Where two headings read alike, the source gives them in different places.

How the values were obtained:
[1] = test system: SET-2 AML cell line (FLAG-CDK8 WT vs FLAG-CDK8-W105M); assay: CDK8 W105M versus wild type SET-2 cell competition (flow cytometry); type: cell-based; details: after 3 days and 7 days of treatment
Description: Compounds A, B, C, and D inhibit SET-2 AML cell line proliferation by inhibiting CDK8. ZsGreen (Clontech) and FLAG-CDK8 WT (wild type) or mCherry (Clontech) and FLAG-CDK8-W105M were expressed in SET 2 cells. The cells were mixed, the ratio of red to green fluorescence was determined by flow cytometry, and the cells were treated with the indicated compounds. After 3 days and 7 days of treatment, the ratio of red to green fluorescent cells was determined.

CDK8/Cyclin C = molecular target: T1, CDK8/Cyclin C (Homo sapiens, UniProt P49336); assay: 33PanQinase radiometric kinase assay, CDK8/Cyclin C; type: biochemical; details: read-out: percent inhibition of CDK8/Cyclin C
T1 construct: purchased ProQinase; host or cells: Sf9 insect cells or E. coli
T1 sequence (P49336 whole entry): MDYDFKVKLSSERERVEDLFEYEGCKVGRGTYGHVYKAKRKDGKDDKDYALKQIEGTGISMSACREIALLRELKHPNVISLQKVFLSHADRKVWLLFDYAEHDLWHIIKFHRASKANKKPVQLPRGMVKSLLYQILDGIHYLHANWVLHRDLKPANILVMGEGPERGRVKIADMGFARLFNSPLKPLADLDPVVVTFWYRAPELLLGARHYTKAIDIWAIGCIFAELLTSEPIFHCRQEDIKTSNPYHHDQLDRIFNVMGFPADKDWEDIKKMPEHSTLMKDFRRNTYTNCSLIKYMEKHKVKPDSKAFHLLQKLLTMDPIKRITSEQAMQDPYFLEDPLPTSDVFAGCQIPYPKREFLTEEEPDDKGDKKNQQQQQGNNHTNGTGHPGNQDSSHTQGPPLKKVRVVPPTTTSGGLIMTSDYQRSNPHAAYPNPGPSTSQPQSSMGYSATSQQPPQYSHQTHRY
T1 sequence (P24863 whole entry partner): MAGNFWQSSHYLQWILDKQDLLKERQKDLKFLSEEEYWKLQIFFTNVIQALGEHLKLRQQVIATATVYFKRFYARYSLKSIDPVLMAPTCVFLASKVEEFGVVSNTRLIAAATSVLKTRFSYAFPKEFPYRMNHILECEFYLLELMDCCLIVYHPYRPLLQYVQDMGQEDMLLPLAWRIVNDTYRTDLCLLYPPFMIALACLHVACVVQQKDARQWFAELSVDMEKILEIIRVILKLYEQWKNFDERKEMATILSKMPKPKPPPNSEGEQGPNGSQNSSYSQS
Description: A radiometric protein kinase assay (33PanQinase Activity Assay) was used for measuring the kinase activity of the 320 protein kinases. All kinase assays were performed in 96-well FlashPlates™ from Perkin Elmer (Boston, Mass., USA) in a 50 μl reaction volume. The reaction cocktail was pipetted in 4 steps in the following order: • 1. 10 μl of non-radioactive ATP solution (in H2O) • 2. 25 μl of assay buffer/[γ-33P]-ATP mixture • 3. 5 μl of test sample in 10% DMSO • 4. 10 μl of enzyme/substrate mixture
All PKC assays (except the PKC-mu and the PKC-nu assay) additionally contained 1 mM CaCl2, 4 mM EDTA, 5 μg/ml phosphatidylserine and 1 μg/ml 1,2-dioleyl-glycerol.
The CAMKID, CAMK2A, CAMK2B, CAMK2D, CAMK4, CAMKK1, CAMKK2, DAPK2, EEF2K, MYLK, MYLK2 and MYLK3 assays additionally contained 1 μg/ml Calmodulin and 0.5 mM CaCl2). The PRKG1 and PRKG2 assays additionally contained 1 μM cGMP. The DNA-PK assay additionally contained 2.5 μg/ml DNA. The protein kinase reaction cocktails were incubated at 30° C. for 60 minutes. The reaction was stopped with 50 μl of 2% (v/v) H3PO4, plates were aspirated and washed two times with 200 μl 0.9% (w/v) NaCl. Incorporation of 33Pi (counting of “cpm”) was determined with a microplate scintillation counter (Microbeta, Wallac). All protein kinase assays were performed with a BeckmanCoulter Biomek 2000/SL robotic system.
All protein kinases provided by ProQinase were expressed in Sf9 insect cells or in E. coli as recombinant GST-fusion proteins or His-tagged proteins, either as full-length or enzymatically active fragments. All kinases were produced from human cDNAs and purified by either GSHaffinity chromatography or immobilized metal. Affinity tags were removed from a number of kinases during purification. The purity of the protein kinases was examined by SDSPAGE/Coomassie staining, the identity was checked by mass spectroscopy.
For each kinase, the median value of the cpm of three wells was defined as “low control” (n=3). This value reflects unspecific binding of radioactivity to the plate in the absence of a protein kinase but in the presence of the substrate. Additionally, for each kinase the median value of the cpm of three other wells was taken as the “high control”, i.e. full activity in the absence of any inhibitor (n=3). The difference between high and low control of each enzyme was taken as 100% activity. As part of the data evaluation the low control of each kinase was subtracted from the high control value as well as from their corresponding “compounds values”. The residual activity (in %) for each compounds well was calculated by using the following formula:
Res. Activity (%)=100×[(signal of compounds−low control)/(high control−low control)]

[2] = Pharmacokinetic profile in mice (plasma, LC-MS/MS); details: for Vd / clearance / AUC(0-inf) / Cmax / Tmax / bioavailability / concentration at 24 h: CD-1, mouse, plasma; for ½ life: CD-1 mice
Description: Formulation correction for salt content was not required for this study. Materials were vortexed and sonicated at room temperature following addition of vehicle. The solutions were maintained at ambient temperature stirring in the dark for at least 30 minutes prior to dose administration. The formulations were then vortexed and sonicated briefly to help ensure solubility.
Mice were selected from the Testing Facility's rodent colony. The animals were enrolled in the study based on acceptable health as determined by Testing Facility personnel on the day of test article administration. Animals were held in environmental acclimation for at least 48 hours (±6 hours) prior to dosing. Animals were maintained at temperatures between 16-26° C. (62-78° F.) with the humidity range between 30-70%. Animals in all groups were fasted overnight and food was returned 4 hours following dosing. Water was provided ad libitum throughout the study.
Whole blood samples for plasma were either collected from each animal by either direct vein puncture of the submandibular vein (survival blood collection) or by cardiac puncture following euthanasia with CO2 (terminal blood collection). […] Following collection, whole blood was placed into a tube containing K2EDTA and immediately placed on wet ice until processed for plasma. Whole blood samples were centrifuged at 2200×g for 10 minutes in a refrigerated centrifuge (5±3° C.) to isolate plasma. The samples were transferred to individual polypropylene containers and immediately placed on dry ice before storage at −70±10° C. until analysis. Plasma collected from undosed spare animals was pooled and analyzed as well.
Once collected the mouse plasma studies were quantitated using LCMS/MS spectroscopy to determine the concentration of compound. […] Eight calibration standards containing the analyte and internal standard imipramine were prepared and analyzed at the beginning and at the end of the sequence. A calibration curve was generated and sample concentrations calculated using the Quantitation software MassHunter.

[3] = test system: Human AML cell line MV4;11; assay: MV4;11 disseminated leukemia model (bioluminescence); type: in vivo, NSG mice; details: for Fold increase in leukemia burden 15 days after 1st dose / in vivo anti-leukemic efficacy (bioluminescence, words): NSG mice; for in vivo anti-leukemic efficacy (bioluminescence, words): compounds dosed at their highest tolerable dose; for Efficacy Rank Day 15: each compound at its own dose/schedule, data from 3 separate studies
Description: The in vivo anti-leukemic activity of Compounds A, B, C, D, and F was tested at the indicated doses and treatment schedules. The doses were chosen based on the compounds tolerability profile (i.e. CA was dosed at 0.16 mg/kg because higher doses caused weight loss or other tolerability issues outlined in Example 6). Human AML cell line MV4;11 expressing mCherry and luciferase were injected into NSG mice. Upon measurement of leukemia cell engraftment, treatment was initiated. Body weight and bioluminescence were measured. It has previously been shown (Shair, Nature 2015) that bioluminescence corresponds to leukemia burden. […] Moreover there was no appreciable advantage between IV or PO dosing observed.

MV4; 11 = assay: Half-maximal growth inhibition (GI50), MV4; 11; type: cell-based; details: Homo sapiens, 240 h, AML, M5, MLL-AF4, read-out: GI50 (nM), day 10
Description: (§1) Compounds A, B, C, D, and F were tested against various cell lines to probe their broad utility against cancer. Cortistatin A (CA) was also tested against the cell lines in a head to head fashion.

MOLM-14 = assay: Half-maximal growth inhibition (GI50), MOLM-14; type: cell-based; details: Homo sapiens, 240 h, AML, M5, MLL-AF9, read-out: GI50 (nM), day 10
Description: as §1

SKNO-1 = assay: Half-maximal growth inhibition (GI50), SKNO-1; type: cell-based; details: Homo sapiens, 240 h, AML, M2, RUNX1-RUNX1T1, read-out: GI50 (nM), day 10
Description: as §1

HEL = assay: Half-maximal growth inhibition (GI50), HEL; type: cell-based; details: Homo sapiens, 240 h, AML, erythroleukemia, JAK2V617F, read-out: GI50 (nM), day 10
Description: as §1

CDK8 = CDK8 (Homo sapiens, UniProt P49336); assay: CDK8 IC50 determination (Example 9); type: biochemical
CDK8, sequence (P49336 whole entry): as the sequence (P49336 whole entry) above
CDK8, sequence (P24863 whole entry partner): as the sequence (P24863 whole entry partner) above

hERG = hERG (Homo sapiens, UniProt Q12809); assay: Panlab hERG assay; type: binding; parameters: Eurofins Panlabs
hERG, sequence (Q12809 whole entry): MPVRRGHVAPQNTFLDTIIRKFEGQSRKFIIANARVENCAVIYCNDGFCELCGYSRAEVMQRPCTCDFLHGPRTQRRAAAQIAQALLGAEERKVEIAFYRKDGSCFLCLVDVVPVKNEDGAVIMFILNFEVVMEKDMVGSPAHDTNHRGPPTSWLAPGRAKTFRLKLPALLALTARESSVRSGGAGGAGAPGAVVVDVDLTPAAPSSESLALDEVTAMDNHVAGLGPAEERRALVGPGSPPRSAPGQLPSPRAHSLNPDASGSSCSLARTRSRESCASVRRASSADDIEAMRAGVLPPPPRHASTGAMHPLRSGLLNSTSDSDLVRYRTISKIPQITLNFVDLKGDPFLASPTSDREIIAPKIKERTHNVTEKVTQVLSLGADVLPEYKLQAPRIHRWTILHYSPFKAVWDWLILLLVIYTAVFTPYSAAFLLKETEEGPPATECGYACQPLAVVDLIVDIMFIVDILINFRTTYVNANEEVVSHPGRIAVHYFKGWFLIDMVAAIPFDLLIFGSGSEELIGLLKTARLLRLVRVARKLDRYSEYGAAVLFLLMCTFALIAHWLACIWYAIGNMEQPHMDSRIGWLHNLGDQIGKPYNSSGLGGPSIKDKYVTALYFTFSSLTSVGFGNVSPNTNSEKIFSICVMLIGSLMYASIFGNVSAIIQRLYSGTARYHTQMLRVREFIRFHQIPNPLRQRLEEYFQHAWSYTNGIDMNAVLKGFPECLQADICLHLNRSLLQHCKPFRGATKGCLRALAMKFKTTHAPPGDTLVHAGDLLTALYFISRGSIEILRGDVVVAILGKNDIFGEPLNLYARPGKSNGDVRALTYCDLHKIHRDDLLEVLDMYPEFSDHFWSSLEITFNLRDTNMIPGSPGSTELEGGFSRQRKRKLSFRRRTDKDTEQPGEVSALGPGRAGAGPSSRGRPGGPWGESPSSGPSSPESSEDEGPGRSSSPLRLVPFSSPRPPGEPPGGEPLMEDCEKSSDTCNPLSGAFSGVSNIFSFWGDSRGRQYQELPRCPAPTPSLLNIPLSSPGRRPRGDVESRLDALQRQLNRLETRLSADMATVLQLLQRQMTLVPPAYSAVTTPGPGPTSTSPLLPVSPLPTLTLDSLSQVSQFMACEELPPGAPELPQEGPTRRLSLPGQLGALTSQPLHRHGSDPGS
Description: Compounds A, B, C, and D were tested in Panlab assays to evaluate potential off-target activity using standard assay kits. Methods employed in these studies have been adapted from the scientific literature to maximize reliability and reproducibility. Reference standards were run as an integral part of each assay to ensure the validity of the results obtained.
Compound B was tested in a subset of 30 Panlab assays that included the hits from screening Compound F in addition to the Panlab hERG and sodium channel assay. This allows direct comparison of Compound B to Compound F in terms of off-target profile.

[4] = read-out: IC50 (nM) against CDK8, average
[5] = tested in duplicate, read-out: IC50 against CDK8, single determinations

Structure (SMILES)	ratio of red (CDK8 W105M) to green (wild type) fluorescent cells [1]	inhibition at 1 µM (CDK8/Cyclin C) [%]	Vd ([2]; iv, 3 mg/kg) [L/kg]	clearance ([2]; iv, 3 mg/kg) [mL/min/kg]	AUC(0-inf) ([2]; po, 10 mg/kg) [ng·h/mL]	Cmax ([2]; po, 10 mg/kg) [nM]	Tmax ([2]; po, 10 mg/kg) [h]	bioavailability ([2]; po, 10 mg/kg) [%]	concentration at 24 h ([2]; po, 10 mg/kg) [nM]	½ life ([2]; IV 3 mg/kg) [h]	½ life ([2]; PO 10 mg/kg) [h]	in vivo anti-leukemic efficacy (bioluminescence, words) [3]	Efficacy Rank Day 15 [3]	GI50 (MV4; 11) [nM]	GI50 (MOLM-14) [nM]	GI50 (SKNO-1) [nM]	GI50 (HEL) [nM]	IC50 (CDK8; [4]) [nM]	IC50 (CDK8; [5])	inhibition at 10 µM (hERG) [%]	also measured
C[C@]12CC=C3C=C4CC[C@@H](O)C[C@]45CC[C@]3(O5)[C@@H]1CC[C@@H]2c1ccc2ccncc2c1 [Compound A, (3S,3aR,9R,10aR,12aS,12bR)-3-(isoquinolin-7-yl)-3a-methyl-1,2,3,3a,4,7,8,9,10,11,12,12b-dodecahydro-10a,12a-epoxybenzo[4,5]cyclohepta[1,2-e]inden-9-ol]	dose-dependently shifted the ratio of red to green cells	> 50	1.12	18.4	3970	3870	0.5	43.9	1.8	4.08	3.04	similarly efficacious to Compound F	5	1.5	6	2	> 1000	9.9	10.6 nM and 9.3 nM		AUC(0-inf) ([2]; male, po, 20 mg/kg): 7940 ng·h/mL; Fold increase in leukemia burden 15 days after 1st dose ([3]; 20 mpk PO Q5Dx2): 10.4 fold
C[C@]12CC=C3C=C4CC[C@@H](N5CC[C@@H](N)C5)C[C@]45CC[C@]3(O5)[C@@H]1CC[C@@H]2c1ccc2ccncc2c1 [Compound B]	dose-dependently shifted the ratio of red to green cells	> 50	26.6	31	1060	218	2	19.8	26.4	18.7	9.55	superior in vivo efficacy as compared to Compound F	3	4	31	3	> 1000	9.1	5.5 nM and 12.7 nM	34	AUC(0-inf) ([2]; male, po, 10 mg/kg): 1060 ng·h/mL; Fold increase in leukemia burden 15 days after 1st dose ([3]; 10 mpk PO 7 on/2off/6on): 5.2 fold
C[C@]12CC=C3C=C4CC[C@@H](N5CC(N)C5)C[C@]45CC[C@]3(O5)[C@@H]1CC[C@@H]2c1ccc2ccncc2c1 [Compound C]	dose-dependently shifted the ratio of red to green cells	> 50	26.4	23.7	2970	462	8	42.3	82.5	14.7	6.68	superior in vivo efficacy as compared to Compound F	2	2	21	3	> 1000	9.5	8.9 nM and 10.2 nM	49	AUC(0-inf) ([2]; male, po, 5 mg/kg): 1480 ng·h/mL; Fold increase in leukemia burden 15 days after 1st dose ([3]; 5 mpk PO 7on/4off/4on): 2.2 fold
C[C@]12CC=C3C=C4CC[C@@H](N5C[C@H](O)[C@@H](O)C5)C[C@]45CC[C@]3(O5)[C@@H]1CC[C@@H]2c1ccc2ccncc2c1 [Compound D]	dose-dependently shifted the ratio of red to green cells	> 50	5.41	18	1390	377	2	15	7.6	6.60	4.25	superior in vivo efficacy as compared to Compound F	1	1.5	6	< 1	> 1000	6.4	6.4 nM and 6.5 nM	20	AUC(0-inf) ([2]; male, iv, 3 mg/kg): 2780 ng·h/mL; Fold increase in leukemia burden 15 days after 1st dose ([3]; 3 mpk IV 7on/2off/4on then IP 2on): 1.1 fold
